# According to PubChem BioAssay (NCI):
#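 Test compounds were applied to cells in 96-well plates for 48 hours at 5 doses. GI50 is the concentration that inhibits growth by half. TGI: total growth inhibition.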
# Tests used:
# Test in all cases: growth of human tumour cells (NCI), 48 h
# NCI-H522 lung = system: NCI-H522 lung
# NCI-H23 lung = system: NCI-H23 lung
# MOLT-4 leukemia = system: MOLT-4 leukemia
# ACHN renal = system: ACHN renal
# CAKI-1 renal = system: CAKI-1 renal
# MCF7 breast = system: MCF7 breast
# T-47D breast = system: T-47D breast
# SK-MEL-5 melanoma = system: SK-MEL-5 melanoma
# HS 578T breast = system: HS 578T breast
# BT-549 breast = system: BT-549 breast
SMILES,TGI (NCI-H522 lung) [µM],TGI (NCI-H23 lung),TGI (MOLT-4 leukemia),TGI (ACHN renal),GI50 (NCI-H522 lung) [µM],GI50 (CAKI-1 renal),TGI (CAKI-1 renal),GI50 (MCF7 breast),TGI (MCF7 breast),GI50 (NCI-H23 lung),GI50 (T-47D breast),TGI (T-47D breast),GI50 (SK-MEL-5 melanoma),TGI (SK-MEL-5 melanoma),GI50 (MOLT-4 leukemia),GI50 (ACHN renal),GI50 (HS 578T breast),TGI (HS 578T breast),TGI (BT-549 breast),GI50 (BT-549 breast) [µg/mL]
Clc1ccccc1/C=C/c1cscn1,> 100,> 100 µM,> 100 µM,> 100 µM,–,–,–,–,–,–,–,–,–,–,–,–,–,–,–,–
O=S1(=O)N(CCNc2nccc(-c3c(-c4cccc(O)c4)nc4sccn34)n2)CCN1Cc1ccccc1,14.9,27.7 µM,40.3 µM,48.2 µM,2.98,4.4 µM,17.8 µM,4.22 µM,34.6 µM,7.19 µM,5.16 µM,27 µM,3.04 µM,9.79 µM,7.84 µM,3.83 µM,2.78 µM,16.6 µM,–,–
CCOC(=O)CN=C1NNS(=O)(=O)c2ccccc21,> 100,> 100 µM,> 100 µM,> 100 µM,–,–,> 100 µM,–,> 100 µM,–,–,> 100 µM,–,> 100 µM,–,–,–,> 100 µM,> 100 µM,–
O=C1NN(C2=NNC3(C(=O)N2)c2ccccc2-c2ccccc23)C(c2ccccc2)=N/C1=C/c1ccc(O)cc1,–,> 150 µg/mL,15 µg/mL,> 150 µg/mL,–,64.2 µg/mL,> 150 µg/mL,39.4 µg/mL,> 150 µg/mL,61.5 µg/mL,27 µg/mL,> 150 µg/mL,39.2 µg/mL,> 150 µg/mL,15 µg/mL,41.7 µg/mL,50.4 µg/mL,> 150 µg/mL,> 150 µg/mL,> 150
COc1cc(/C=C2\CCCC3=C2NC(C)=NC3c2cc(OC)c(OC)c(OC)c2)cc(OC)c1OC (stereo not given),–,–,> 100 µM,–,–,2.61 µM,22.9 µM,1.45 µM,> 100 µM,–,3.25 µM,> 100 µM,–,–,1.93 µM,–,5.16 µM,> 100 µM,–,–
NCCCCC(N)C(=O)NCCNc1ccc(NCCNC(=O)C(N)CCCCN)c2c1C(=O)c1ccccc1C2=O (stereo not given),> 100,> 100 µM,> 100 µM,> 100 µM,–,–,> 100 µM,–,> 100 µM,–,–,> 100 µM,–,> 100 µM,–,–,–,> 100 µM,20.1 µM,–
C=CC1(C)CCC2=C(CCC3C(C)(C(=O)OC)CCCC23C)C1=O (stereo not given),29.3,54.5 µM,–,31.9 µM,–,–,87.1 µM,–,–,–,–,–,–,30.3 µM,–,–,–,–,–,–
O=C(N/N=C\c1cccc(O)c1)c1ccncc1,> 100,> 100 µM,> 100 µM,> 100 µM,–,–,> 100 µM,–,–,–,–,> 100 µM,–,–,–,–,–,> 100 µM,> 100 µM,–
Cn1c(=O)c2[nH]c(CCCCC(=O)O)nc2n(C)c1=O,> 100,> 100 µM,> 100 µM,> 100 µM,–,–,> 100 µM,–,–,–,–,> 100 µM,–,> 100 µM,–,–,–,> 100 µM,> 100 µM,–
Cc1cc(O)c(C(C)(C)C)cc1Sc1cc(C(C)(C)C)c(O)cc1C,5.62,11.8 µM,8.07 µM,10 µM,2.73,2.07 µM,6.62 µM,2.61 µM,9 µM,3.49 µM,2.09 µM,13.4 µM,1.58 µM,3.02 µM,2.67 µM,2.89 µM,3.02 µM,13.9 µM,–,–
CCOC(=O)C(O)(NC(=O)c1ccc(F)cc1)C(F)(F)F (stereo not given),> 100,> 100 µM,> 100 µM,> 100 µM,–,–,> 100 µM,–,> 100 µM,–,–,> 100 µM,–,> 100 µM,–,–,–,> 100 µM,> 100 µM,–
